Results from PubChem BioAssay (NCI).
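48-hour exposure; five concentrations; linearly interpolated endpoints. At the TGI there is no net growth.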

Legend:
Assay in all cases: NCI anticancer screen, dose series, 48 h
[1] = tested on: MOLT-4 leukemia
[2] = tested on: MDA-N
[3] = tested on: CCRF-CEM leukemia
[4] = tested on: PC-3 prostate
[5] = tested on: K-562 leukemia
[6] = tested on: SW-620 colon
[7] = tested on: UACC-62 melanoma
[8] = tested on: SNB-19 CNS
[9] = tested on: 786-0 renal
[10] = tested on: DU-145 prostate
[11] = tested on: A549 NSCLC
[12] = tested on: A498 renal
[13] = tested on: NCI-H226 lung
[14] = tested on: SK-OV-3 ovarian
[15] = tested on: M14 melanoma
[16] = tested on: HL-60(TB) leukemia
[17] = tested on: COLO 205 colon
[18] = tested on: HCT-116 colon
[19] = tested on: NCI/ADR-RES ovarian
[20] = tested on: HOP-62 NSCLC
[21] = tested on: HCC-2998 colon
[22] = tested on: EKVX NSCLC
[23] = tested on: SNB-75 CNS
[24] = tested on: SF-295 CNS
[25] = tested on: OVCAR-5 ovarian
[26] = tested on: UO-31 renal
[27] = tested on: NCI-H460 lung
[28] = tested on: T-47D breast
[29] = tested on: HCT-15 colon
[30] = tested on: HS 578T breast
[31] = tested on: ACHN renal
[32] = tested on: OVCAR-3 ovarian
[33] = tested on: SK-MEL-28 melanoma
[34] = tested on: KM12 colon
[35] = tested on: SF-268 CNS
[36] = tested on: SN12C renal
[37] = tested on: IGROV1 ovarian
[38] = tested on: MDA-MB-435
[39] = tested on: SF-539 CNS
[40] = tested on: BT-549 breast
[41] = tested on: HT29 colon
[42] = tested on: SR leukemia
[43] = tested on: SK-MEL-5 melanoma
[44] = tested on: CAKI-1 renal
[45] = tested on: LOX IMVI melanoma
[46] = tested on: SK-MEL-2 melanoma
[47] = tested on: OVCAR-8 ovarian
[48] = tested on: NCI-H522 lung
[49] = tested on: HOP-92 NSCLC
[50] = tested on: NCI-H23 lung
[51] = tested on: MCF7 breast
[52] = tested on: MALME-3M melanoma
[53] = tested on: MDA-MB-231 breast
[54] = tested on: U251 CNS
[55] = tested on: RXF 393 renal
[56] = tested on: RPMI-8226 leukemia
[57] = tested on: TK-10 renal
[58] = tested on: OVCAR-4 ovarian
[59] = tested on: UACC-257 melanoma

**Q.** What does the source list for `O=C(NN1C(=O)/C(=C/c2ccc(Cl)cc2)N=C1c1ccccc1)c1c(Cl)c(Cl)c(Cl)c(Cl)c1-c1nc2ccccc2[nH]1`?
**A.** TGI [1]: > 100 µM; TGI [2]: 31.5 µM; TGI [3]: > 100 µM; TGI [4]: > 100 µM; TGI [5]: 50 µM; TGI [6]: > 100 µM; TGI [7]: 30.9 µM; TGI [8]: > 100 µM; TGI [9]: 55.9 µM; TGI [10]: 61.9 µM; TGI [11]: > 100 µM; TGI [12]: 44.5 µM; TGI [13]: 68.2 µM; TGI [14]: > 100 µM; TGI [15]: 68.8 µM; TGI [16]: 50.5 µM; TGI [17]: > 100 µM; TGI [18]: 45.2 µM; TGI [19]: 42.2 µM; TGI [20]: > 100 µM; TGI [21]: 31.8 µM; TGI [22]: > 100 µM; TGI [23]: 52.6 µM; TGI [24]: > 100 µM; TGI [25]: > 100 µM; TGI [26]: > 100 µM; TGI [27]: 16.2 µM; TGI [28]: 9.72 µM; TGI [29]: 28.3 µM; TGI [30]: 95.3 µM; TGI [31]: 75.3 µM; TGI [32]: > 100 µM; TGI [33]: > 100 µM; TGI [34]: 28.5 µM; TGI [35]: 62.5 µM; TGI [36]: 86.4 µM; TGI [37]: > 100 µM; TGI [38]: 11.6 µM; TGI [39]: > 100 µM; TGI [40]: 32.8 µM; TGI [41]: > 100 µM; TGI [42]: 27.1 µM; TGI [43]: > 100 µM; TGI [44]: 78.8 µM; TGI [45]: 62.8 µM; TGI [46]: 61.7 µM; TGI [47]: > 100 µM; TGI [48]: 83.4 µM; TGI [49]: 37.3 µM; TGI [50]: 34.9 µM; TGI [51]: 60.3 µM; TGI [52]: 54.6 µM

**Q.** How did the TGI [1] turn out when `OC1OC(c2ccc[nH]2)C(F)(F)C(F)(F)C1(F)F` (configuration not stated) was run?
**A.** > 100 µM

**Q.** And the TGI [2]?
**A.** > 100 µM

**Q.** What about the TGI [3] of the same compound?
**A.** > 100 µM

**Q.** And the TGI [4]?
**A.** > 100 µM

**Q.** And the TGI [6]?
**A.** > 100 µM

**Q.** And the TGI [7]?
**A.** > 100 µM

**Q.** What about the TGI [8] of the same compound?
**A.** > 100 µM

**Q.** And the TGI [9]?
**A.** > 100 µM

**Q.** What about the TGI [10] of the same compound?
**A.** > 100 µM

**Q.** What about the TGI [11] of the same compound?
**A.** > 100 µM

**Q.** And the TGI [53]?
**A.** > 100 µM

**Q.** What about the TGI [12] of the same compound?
**A.** > 100 µM

**Q.** What about the TGI [54] of the same compound?
**A.** > 100 µM

**Q.** And the TGI [13]?
**A.** > 100 µM

**Q.** What about the TGI [14] of the same compound?
**A.** > 100 µM

**Q.** What about the TGI [15] of the same compound?
**A.** > 100 µM

**Q.** What about the TGI [16] of the same compound?
**A.** > 100 µM

**Q.** What about the TGI [17] of the same compound?
**A.** > 100 µM

**Q.** And the TGI [18]?
**A.** > 100 µM

**Q.** What about the TGI [19] of the same compound?
**A.** > 100 µM

**Q.** What about the TGI [20] of the same compound?
**A.** > 100 µM

**Q.** And the TGI [22]?
**A.** > 100 µM

**Q.** And the TGI [23]?
**A.** > 100 µM

**Q.** What about the TGI [24] of the same compound?
**A.** > 100 µM

**Q.** What about the TGI [25] of the same compound?
**A.** > 100 µM

**Q.** And the TGI [26]?
**A.** > 100 µM

**Q.** And the TGI [27]?
**A.** > 100 µM

**Q.** And the TGI [28]?
**A.** > 100 µM

**Q.** And the TGI [29]?
**A.** > 100 µM

**Q.** What about the TGI [30] of the same compound?
**A.** > 100 µM

**Q.** What about the TGI [31] of the same compound?
**A.** > 100 µM

**Q.** What about the TGI [32] of the same compound?
**A.** > 100 µM

**Q.** And the TGI [33]?
**A.** > 100 µM

**Q.** And the TGI [34]?
**A.** > 100 µM

**Q.** What about the TGI [55] of the same compound?
**A.** > 100 µM

**Q.** What about the TGI [56] of the same compound?
**A.** > 100 µM

**Q.** What about the TGI [35] of the same compound?
**A.** > 100 µM

**Q.** And the TGI [36]?
**A.** > 100 µM

**Q.** What about the TGI [57] of the same compound?
**A.** > 100 µM

**Q.** And the TGI [37]?
**A.** > 100 µM

**Q.** And the TGI [38]?
**A.** > 100 µM

**Q.** And the TGI [39]?
**A.** > 100 µM

**Q.** What about the TGI [40] of the same compound?
**A.** > 100 µM

**Q.** And the TGI [41]?
**A.** > 100 µM

**Q.** And the TGI [43]?
**A.** > 100 µM

**Q.** What about the TGI [44] of the same compound?
**A.** > 100 µM

**Q.** What about the TGI [45] of the same compound?
**A.** > 100 µM

**Q.** What about the TGI [46] of the same compound?
**A.** > 100 µM

**Q.** What about the TGI [58] of the same compound?
**A.** > 100 µM

**Q.** What about the TGI [47] of the same compound?
**A.** > 100 µM

**Q.** What about the TGI [48] of the same compound?
**A.** > 100 µM

**Q.** What about the TGI [59] of the same compound?
**A.** > 100 µM

**Q.** And the TGI [49]?
**A.** > 100 µM

**Q.** What about the TGI [51] of the same compound?
**A.** > 100 µM

**Q.** And the TGI [52]?
**A.** > 100 µM

**Q.** Which results are given for `CCOP(=O)(CCC(O)CNc1nc(N)nc(Cl)c1N=Nc1ccc(Cl)cc1)OCC` (configuration not stated)?
**A.** TGI [1]: 37.1 µM; TGI [2]: 28.3 µM; TGI [3]: 46.5 µM; TGI [4]: 29.7 µM; TGI [5]: > 100 µM; TGI [6]: 42.7 µM; TGI [7]: 30.2 µM; TGI [9]: 48.4 µM; TGI [10]: > 100 µM; TGI [11]: 33.8 µM; TGI [53]: > 100 µM; TGI [12]: 27.7 µM; TGI [54]: 51.2 µM; TGI [13]: 64.5 µM; TGI [14]: 58.9 µM; TGI [16]: 33.3 µM; TGI [17]: 27.4 µM; TGI [18]: 40.3 µM; TGI [19]: 46.9 µM; TGI [20]: 40.2 µM; TGI [21]: 26.1 µM; TGI [22]: 40.6 µM; TGI [23]: 49.3 µM; TGI [24]: 38 µM; TGI [25]: 34.1 µM; TGI [26]: 16.6 µM; TGI [27]: 26.1 µM; TGI [28]: 37.3 µM; TGI [29]: 19.6 µM; TGI [30]: 38.2 µM; TGI [31]: 31.6 µM; TGI [32]: 25.3 µM; TGI [33]: 25.9 µM; TGI [34]: 37.5 µM; TGI [55]: 21.1 µM; TGI [56]: 42.7 µM; TGI [35]: 42.7 µM; TGI [36]: 42.7 µM; TGI [57]: 54.1 µM; TGI [37]: 33 µM; TGI [38]: 29.9 µM; TGI [41]: 28.8 µM; TGI [42]: 50.3 µM; TGI [43]: 25.7 µM; TGI [44]: 14.5 µM; TGI [45]: 22.9 µM; TGI [46]: 24.3 µM; TGI [58]: 24.3 µM; TGI [47]: > 100 µM; TGI [48]: 23 µM; TGI [59]: 29.5 µM; TGI [49]: 3.8 µM; TGI [50]: 37.4 µM; TGI [51]: 26.3 µM; TGI [52]: 21.4 µM
